Read-outs that look alike come from different tables or passages of the source.
Legend:
Assay type in all cases: cell-based, human
T24 cells [1] = assay: Bliss independence drug interaction model on T24 cell viability; conditions: for inhibition at 1 µg/mL / inhibition at 2 µg/mL / inhibition at 3 µg/mL / inhibition at 5 µg/mL / inhibition at 7.5 µg/mL / inhibition at 10 µg/mL / inhibition at 12.5 µg/mL: Homo sapiens, T-24
Description: (§1) Cell proliferation assay—XTT assay was carried out as described in [34], on T24 and HTB-9 cells. 1*10^4 cells/well were seeded in 96-wells plates, methanol was used as a vehicle control at the same concentration as the treatments. Mitomycin-C (MMC) was used as positive control. Cell viability was calculated relative to the vehicle control after subtracting blank.
Analysis of combined drug effects—Drug synergy was determined by the Bliss independence drug interaction model as described in [31], on T24 cells.

T24 cells [2] = assay: Cell migration scratch assay; conditions: sub-lethal: CBD 10, CBC+THC 8.6+1.4, MMC 4, CBC 10, THC 10 μg/mL; vs control
Description: The scratch area, indicated by the cells that migrated to the scratch at time x, was calculated as the percentage of the scratch area at time x from time 0: […]

T24 cells [3] = assay: XTT viability of T24 cells with or without CB1/CB2 inverse agonist, TRPV1/TRPV2 antagonist or TRPA1 blocker; conditions: CBD 13.8 μg/mL; inverse agonist 10 μM
Description: For quantification of phytocannabinoids by analytical HPLC, the standards were dissolved in methanol at various concentrations from 0-25 μg/mL.
as §1

CB1 receptor (CNR1) = assay: qRT-PCR of CB1 receptor RNA level in T24 cells; conditions: 6 hours; CBC+THC 11.2+1.8 μg/mL or CBD 9.2 μg/mL; relative to control, HPRT1 reference
Description: (§2) Quantitative real-time (qRT) PCR—qRT PCR was carried out as described in [34]. Briefly, T24 cells were treated with cannabis compounds or methanol as a vehicle control for 6 h. Cells were then harvested and total RNA was isolated and reverse-transcribed. The expression of each target gene was normalized to the expression of Hypoxanthine Phosphoribosyltransferase 1 (HPRT1; geneID 3251) mRNA as the 2^−ΔΔCt and is presented as the ratio of the target gene to HPRT1 mRNA, expressed as 2^−ΔCt, where Ct is the threshold cycle and ΔCt=Ct Target gene—Ct HPRT1. Experiments were repeated three times. The primers were: for CB1 (CNR1; geneID 1268) forward 5′-[…]-3′ (SEQ ID NO: 1) and reverse 5′-[…]-3′ (SEQ ID NO: 2); for CB2 (CNR2; geneID 1269) forward 5′-[…]-3′ (SEQ ID NO: 3) and reverse 5′-[…]-3′ (SEQ ID NO: 4).

CB2 receptor (CNR2) = assay: qRT-PCR of CB2 receptor RNA level in T24 cells; conditions: 6 hours; CBC+THC 11.2+1.8 μg/mL or CBD 9.2 μg/mL; relative to control, HPRT1 reference
Description: as §2

T24 cells [4] = assay: Cell cycle analysis (PI staining, FACS); conditions: 24 hours; CBD 15 μg/mL; insignificant increase, control 17.4%
Description: For cell cycle analysis, cells were seeded in 6-wells culture plates at a concentration of 5×10^5 cells per well in McCoy (for T24 cells). The following day, media was replaced with new media containing treatments or methanol control. Cells were then incubated for 24 h at 37° C. in a humidified 5% CO2, 95% air atmosphere. Following 24 h of incubation, media was replaced with new media containing treatment or methanol control. Cells from each well were then harvested and collected separately and centrifuged for 2 min at 900 g. The cell pellet was washed once with 1 mL of PBS and fixed with 70% cold ethanol at 4° C. for at least 1 h. The fixed cells were pelleted out and washed twice with 1 mL of PBS. The cell pellet was then stained by re-suspending in 250 μL of PI solution (50 μg/mL) containing RNase A (100 μg/mL) for 30 min in the dark. Following, 200 μL of PBS were added to each tube and cells were analyzed using FACS.
Cell proliferation assay—XTT assay was carried on T24 and HTB-9 cells. 1×10^4 cells/well were seeded in 96-well plates. […] MMC was used as a positive control. XTT reagent (2,3,-bis (2-methoxy-4-nitro-5-sulfophenyl)-5-[(phenylamino)-carbonyl]-2H-tetrazolium inner salt) was added for 2 h at 37° C. in a humidified atmosphere of 5% CO2 to 95% air. Absorbance was recorded by a Synergy 111 hybrid reader photometer (BioTek) at 490 nm with 650 nm of reference wavelength. Cell survival (% r, viability) was estimated using the equation: % cell survival=(A490−A650) of treatment/(A490−A650) of solvent control×100. A490 and A650 are the absorbencies of the XTT colorimetric reaction. […] Apoptosis assay and cell cycle analysis—T24 cells were treated with cannabis compounds or with methanol as vehicle control. The cell cycle was determined at 24 hours and apoptosis was determined at 48 hours following treatment. Staining and detection followed the manufacturer's instructions. […] Then 200 μL of PBS was added to each tube and the cells were analyzed using FACS.

T24 cells [5] = assay: Apoptosis assay (Annexin V-FITC and PI, FACS); conditions: 48 hours; CBC+THC 17.2+2.8, CBD 15, MMC 8 μg/mL; control 46.2%
Description: Apoptosis assay and cell cycle analysis—T24 cells were treated with cannabis compounds or with methanol as a vehicle control. Cell cycle was determined at 24 h and apoptosis was determined at 48 h post-treatment. Staining and detection followed manufacturer instructions. Briefly, for the apoptosis assay, the MEBCYTO Apoptosis Kit with Annexin V-FITC and PI (MBL, Enco, 4700) was used. Cells were seeded in culture 6-wells plates, at density of 5×10^5 cells per well in McCoy's 5A (for T24 a cells) or in RPMI (for HTB-9 cells). The following day, media was replaced with new media containing treatment or methanol control. Cells were then incubated for 24 or 48 h at 37° C. in a humidified 5% CO2 95% air atmosphere. Following incubation, cells were harvested and collected separately. Tubes were centrifuged for 2 min at 900 g and cell pellets were resuspended and washed twice with 1 mL of PBS. The cells in each sample were resuspended in 85 μL of Annexin binding buffer. Cells were stained using 10 μL of Annexin V-FITC solution and 5 μL of propidium iodide (PI) working solution followed by 15 min incubation in the dark at room temperature. Then 400 μL of Annexin V binding buffer were added to each tube and flow cytometry was performed using a FORTESA flow cytometer (FACS). Cells were considered to be apoptotic if they were Annexin V+/PI− (early apoptotic) or Annexin V+/PI+ (late apoptotic). Live cells were defined as Annexin V−/PI−, and Annexin V−/PI+ as necrotic.
Cell proliferation assay—XTT assay was carried on T24 and HTB-9 cells. 1×10^4 cells/well were seeded in 96-well plates. […] MMC was used as a positive control. […] Absorbance was recorded by a Synergy 111 hybrid reader photometer (BioTek) at 490 nm with 650 nm of reference wavelength. […] The cell cycle was determined at 24 hours and apoptosis was determined at 48 hours following treatment. […] Then 200 μL of PBS was added to each tube and the cells were analyzed using FACS.

T24 cells [6] = assay: Cytoskeleton (F-actin) staining, confocal; conditions: 24 hours; CBC+THC 8.6+1.4, CBD 10 μg/mL
Description: Cytoskeleton staining—T24 cell were seeded on glass bottom cell culture dishes and fixed with 3.7% formaldehyde solution and permeabilized with 0.1% Triton X-100 at room temperature. Fixed cells were blocked in Phosphate Buffered Saline (PBS) containing 1% bovine serum albumin. For actin and nuclear staining cells were incubated with EasyProbes ActinRed 555 Stain, and Hoechst, respectively. Image acquisition was effected using a Leica SP8 laser scanning microscope (Wetzlar, Germany), equipped with a 405 and 552 nm solid state lasers, HCX PL APO CS 10×/0.40 or HC PL APO CS 60×/1.2 water immersion objectives (Leica, Wetzlar, Germany) and Leica Application Suite X software (Wetzlar, Germany). Hoechst and ActinRed 555 emission signals were detected with PMT and HyD (hybrid) detectors in ranges of 415-490 and 565-660 nm, respectively. At least 3 images were captured from each slide, and experiments were repeated 4 times.

SMILES: CCCCCc1cc(O)c2c(c1)OC(C)(C)[C@@H]1CCC(C)=C[C@@H]21 [THC, Tetrahydrocannabinol]
- Delta between observed and experimental values calculated according to Bliss model (T24 cells [1]; CBC 0 + THC 1 μg/ml): 0
- Delta between observed and experimental values calculated according to Bliss model (T24 cells [1]; CBC 0 + THC 2 μg/ml): 0
- Delta between observed and experimental values calculated according to Bliss model (T24 cells [1]; CBC 0 + THC 3 μg/ml): 0
- Delta between observed and experimental values calculated according to Bliss model (T24 cells [1]; CBC 0 + THC 5 μg/ml): 0
- Delta between observed and experimental values calculated according to Bliss model (T24 cells [1]; CBC 0 + THC 7.5 μg/ml): 0
- Delta between observed and experimental values calculated according to Bliss model (T24 cells [1]; CBC 0 + THC 10 μg/ml): 0
- Delta between observed and experimental values calculated according to Bliss model (T24 cells [1]; CBC 0 + THC 12.5 μg/ml): 0
- inhibition at 1 µg/mL (T24 cells [1]; CBC 0 + THC 1 μg/ml, read-out: Calculated (expected) value of cell survival inhibition): -1.14%
- inhibition at 1 µg/mL (T24 cells [1]; CBC 0 + THC 1 μg/ml, read-out: Experimental (observed) value of cell survival inhibition): -1.14%
- inhibition at 2 µg/mL (T24 cells [1]; CBC 0 + THC 2 μg/ml, read-out: Calculated (expected) value of cell survival inhibition): -3.21%
- inhibition at 2 µg/mL (T24 cells [1]; CBC 0 + THC 2 μg/ml, read-out: Experimental (observed) value of cell survival inhibition): -3.21%
- inhibition at 3 µg/mL (T24 cells [1]; CBC 0 + THC 3 μg/ml, read-out: Calculated (expected) value of cell survival inhibition): -1.37%
- inhibition at 3 µg/mL (T24 cells [1]; CBC 0 + THC 3 μg/ml, read-out: Experimental (observed) value of cell survival inhibition): -1.37%
- inhibition at 5 µg/mL (T24 cells [1]; CBC 0 + THC 5 μg/ml, read-out: Calculated (expected) value of cell survival inhibition): 4.88%
- inhibition at 5 µg/mL (T24 cells [1]; CBC 0 + THC 5 μg/ml, read-out: Experimental (observed) value of cell survival inhibition): 4.88%
- inhibition at 7.5 µg/mL (T24 cells [1]; CBC 0 + THC 7.5 μg/ml, read-out: Calculated (expected) value of cell survival inhibition): -1.83%
- inhibition at 7.5 µg/mL (T24 cells [1]; CBC 0 + THC 7.5 μg/ml, read-out: Experimental (observed) value of cell survival inhibition): -1.83%
- inhibition at 10 µg/mL (T24 cells [1]; CBC 0 + THC 10 μg/ml, read-out: Calculated (expected) value of cell survival inhibition): 4.23%
- inhibition at 10 µg/mL (T24 cells [1]; CBC 0 + THC 10 μg/ml, read-out: Experimental (observed) value of cell survival inhibition): 4.23%
- inhibition at 12.5 µg/mL (T24 cells [1]; CBC 0 + THC 12.5 μg/ml, read-out: Calculated (expected) value of cell survival inhibition): 27%
- inhibition at 12.5 µg/mL (T24 cells [1]; CBC 0 + THC 12.5 μg/ml, read-out: Experimental (observed) value of cell survival inhibition): 27%
- cell migration into the scratch (T24 cells [2]): had no effect on cell migration

SMILES: CCCCCc1cc(O)c2c(c1)OC(C)(CCC=C(C)C)C=C2 (stereo not drawn) [CBC, Cannabichromene]
- Calculated (expected) value of cell survival inhibition (T24 cells [1]; CBC 3.5 + THC 0 μg/ml): −0.2617
- Delta between observed and experimental values calculated according to Bliss model (T24 cells [1]; CBC 3.5 + THC 0 μg/ml): 1.26E−10
- Experimental (observed) value of cell survival inhibition (T24 cells [1]; CBC 3.5 + THC 0 μg/ml): −0.2617
- Calculated (expected) value of cell survival inhibition (T24 cells [1]; CBC 5.5 + THC 0 μg/ml): 0.003989
- Delta between observed and experimental values calculated according to Bliss model (T24 cells [1]; CBC 5.5 + THC 0 μg/ml): 9.96E−11
- Experimental (observed) value of cell survival inhibition (T24 cells [1]; CBC 5.5 + THC 0 μg/ml): 0.003989
- Calculated (expected) value of cell survival inhibition (T24 cells [1]; CBC 7.5 + THC 0 μg/ml): −0.05563
- Delta between observed and experimental values calculated according to Bliss model (T24 cells [1]; CBC 7.5 + THC 0 μg/ml): 1.06E−10
- Experimental (observed) value of cell survival inhibition (T24 cells [1]; CBC 7.5 + THC 0 μg/ml): −0.05563
- Calculated (expected) value of cell survival inhibition (T24 cells [1]; CBC 9.5 + THC 0 μg/ml): −0.061
- Delta between observed and experimental values calculated according to Bliss model (T24 cells [1]; CBC 9.5 + THC 0 μg/ml): 1.06E−10
- Experimental (observed) value of cell survival inhibition (T24 cells [1]; CBC 9.5 + THC 0 μg/ml): −0.061
- Calculated (expected) value of cell survival inhibition (T24 cells [1]; CBC 11.5 + THC 0 μg/ml): 0.2028
- Delta between observed and experimental values calculated according to Bliss model (T24 cells [1]; CBC 11.5 + THC 0 μg/ml): 7.97E−11
- Experimental (observed) value of cell survival inhibition (T24 cells [1]; CBC 11.5 + THC 0 μg/ml): 0.2028
- Calculated (expected) value of cell survival inhibition (T24 cells [1]; CBC 13.5 + THC 0 μg/ml): 0.5088
- Delta between observed and experimental values calculated according to Bliss model (T24 cells [1]; CBC 13.5 + THC 0 μg/ml): 4.91E−11
- Experimental (observed) value of cell survival inhibition (T24 cells [1]; CBC 13.5 + THC 0 μg/ml): 0.5088
- cell migration into the scratch (T24 cells [2]): reduced cell migration to a lesser extent than treatment with CBC+THC

SMILES: C=C(C)[C@@H]1CCC(C)=C[C@H]1c1c(O)cc(CCCCC)cc1O [CBD, Cannabidiol]
- effect of CB1 and CB2 inverse agonists on CBD cytotoxicity (T24 cells [3]): Only CB2 inverse agonist completely abolished cytotoxicity
- CB1 receptor RNA level induction (CB1 receptor (CNR1)): 1.35 fold
- CB2 receptor RNA level induction (CB2 receptor (CNR2)): 2.32 fold
- G2/M-phase cells (T24 cells [4]): 38.3%
- cell apoptosis (T24 cells [5]): 81.7%
- cell migration into the scratch (T24 cells [2]): marked and significant reduction in the ability of the cells to migrate into the scratch
- F-actin filaments in the cell periphery (T24 cells [6]): induced accumulation of F-actin filaments in the cell periphery

— patent US20240041902A1, “COMPOSITIONS AND METHODS FOR THE TREATMENT OF UROTHELIAL CANCER” (The State of Israel, Ministry of Agriculture & Rural …, priority 2020, published 2024)
